{"source": "paper PMC3212850", "about": "(ACS Medicinal Chemistry Letters, 2011)", "origin": "cited, not measured here", "tested_on": "cell lines", "data": [{"substance": "apratoxin B", "values": [{"measurement": "activity relative to apratoxin A", "value": "reduces activity"}]}]}
